Measured values from the OligoGym collection.
Where “and” joins values, the source holds several entries; their conditions need not be identical. Equal entries are not always repeated. After the bases stand the sugars from the 5' end (letter, count) and the backbone: PS all phosphorothioate, else s phosphorothioate and o phosphodiester by linkage. Methylation of C is not given here. e = 2'-O-(2-methoxyethyl) (MOE); k = constrained ethyl (cEt); d = 2'-deoxy (DNA)

Molecular target: IRF4
Conditions: ASO

Sequence | target mRNA inhibition (SK-MEL-28, 4 µM) | target mRNA inhibition (MM.1R, 1 µM) | also measured
GTATACCAACGACAGC (sugars k3 d10 k3, PS) | 78% | – | –
GTATACTTAAGCAAGT (sugars k3 d10 k3, PS) | 42% | – | –
GTATAGTTCTCAACCA (sugars k3 d10 k3, PS) | 47% | – | –
GTATTTCATAGCTAGT (sugars k3 d10 k3, PS) | 69% | – | –
GTCAAAAAGATGCAGA (sugars k3 d10 k3, PS) | 50% | – | –
GTCAATACTGAAAGGC (sugars k3 d10 k3, PS) | 66% | – | –
GTCACCTGGCAACCAT (sugars k3 d10 k3, PS) | 41% | – | –
GTCACTTACACCCAGA (sugars k3 d10 k3, PS) | 52% | – | –
GTCAGCTCCATCCTGC (sugars k3 d10 k3, PS) | 52% | – | –
GTCATTGCTCTTGTTC (sugars k3 d10 k3, PS) | – | 18% | –
GTCCAGAGTCTTCAGA (sugars k3 d10 k3, PS) | 6% | – | –
GTCCCTCCAGCTTCGG (sugars k3 d10 k3, PS) | 3% | – | –
GTCCGACGCACCGCGG (sugars k3 d10 k3, PS) | 18% | – | –
GTCCGCCCCGCGCGGT (sugars k3 d10 k3, PS) | – | 3% | –
GTCGAACCTCTGGTTC (sugars k3 d10 k3, PS) | -10% | – | –
GTCGCGCAAGTCTACA (sugars k3 d10 k3, PS) | – | 4% and 16% | –
GTCTAAACCAGCATAT (sugars k3 d10 k3, PS) | 19% | – | –
GTCTAAAGTCCCATCG (sugars k3 d10 k3, PS) | 40% | – | –
GTCTATGGGATTATAT (sugars k3 d10 k3, PS) | 21% | – | –
GTCTCAGTTTGAAGCA (sugars k3 d10 k3, PS) | 69% and 74% | – | –
GTCTGGCTAGCAGAGG (sugars k4 d8 k4, PS) | 9% | – | –
GTGAAAACACTCATGG (sugars k3 d10 k3, PS) | 60% | – | –
GTGATAGCTGAGCTGA (sugars k2 d9 e3 k2, PS) | – | 13% | –
GTGATAGCTGAGCTGA (sugars k3 d10 k3, PS) | – | 70% and 75% | target mRNA inhibition (H929, 0.04 µM): 51% and 42%; target mRNA inhibition (KMS11, 0.2 µM): 77% and 89%; target mRNA inhibition (MM.1R, 0.0625 µM): 13% and 17%; target mRNA inhibition (MM.1R, 0.25 µM): 38% and 47%; target mRNA inhibition (MM.1R, 4 µM): 89% and 88%

Sequence | target mRNA inhibition (SK-MEL-28, 4 µM) | target mRNA inhibition (MM.1R, 1 µM) | also measured
GTGATAGCTGAGCTGA (sugars kkddddddddddkeke, PS) | – | 35% | –
GTGATAGCTGAGCTGA (sugars kkdddddddddekeke, PS) | – | 24% | –
GTGATAGGTATACTTA (sugars k3 d10 k3, PS) | 65% | – | –
GTGATGTCAGGTTTTC (sugars k3 d10 k3, PS) | – | 66% | target mRNA inhibition (MM.1R, 0.074 µM): 11%; target mRNA inhibition (MM.1R, 0.222 µM): 38%; target mRNA inhibition (MM.1R, 0.666 µM): 66%; target mRNA inhibition (MM.1R, 2 µM): 90%
GTGATGTCAGGTTTTC (sugars kkddddddddddkeke, PS) | – | 18% | –
GTGGAACTCATAGGTG (sugars k3 d10 k3, PS) | 53% | – | –
GTGGGTCCCAAGATCG (sugars k3 d10 k3, PS) | 40% | – | –
GTGTAAGGTCTGAGAG (sugars k3 d10 k3, PS) | 16% | – | –
GTGTCTAAAGTCCCAT (sugars kddddddddddkekek, PS) | – | 34% and 23% | –
GTGTGCTTGCCAAGCC (sugars k3 d10 k3, PS) | – | 66% and 63% | target mRNA inhibition (MM.1R, 0.0625 µM): 35%; target mRNA inhibition (MM.1R, 0.25 µM): 23%; target mRNA inhibition (MM.1R, 4 µM): 87%
GTGTGCTTGCCAAGCC (sugars kkdddddddddkekek, PS) | – | 41% and 39% | –
GTGTTCCAGGAGATAT (sugars k3 d10 k3, PS) | – | 30% | –
GTTAAAGCAGCATAAT (sugars k3 d10 k3, PS) | 27% | – | –
GTTAAGTACTTGGACA (sugars k3 d10 k3, PS) | 32% | – | –
GTTAATAATGCTTGCA (sugars k3 d10 k3, PS) | 2% | – | –
GTTACCGCATTGCTAG (sugars k3 d10 k3, PS) | – | 16% | –
GTTACTAATTCCATAG (sugars k3 d10 k3, PS) | 49% | – | –
GTTCAAAGCGCACCGC (sugars k3 d10 k3, PS) | 65% | – | –
GTTCATACCCAATAGT (sugars k3 d10 k3, PS) | 66% | – | –
GTTCATATCACAGAGC (sugars k3 d10 k3, PS) | 45% | – | –
GTTCCTGTCACCTGGC (sugars k4 d8 k4, PS) | 12% | – | –
GTTCTCTACTGTTTGT (sugars k3 d10 k3, PS) | 68% | – | –
GTTGCATAGGCATCCT (sugars k3 d10 k3, PS) | – | 27% | –
GTTGCATGGCTAATGA (sugars k3 d10 k3, PS) | 61% | – | –

Sequence | target mRNA inhibition (SK-MEL-28, 4 µM) | target mRNA inhibition (MM.1R, 1 µM) | also measured
GTTGCCGAGATATAAA (sugars k3 d10 k3, PS) | – | 13% | –
GTTGGCTGGTCTTTGT (sugars k3 d10 k3, PS) | – | 63% | –
GTTGGCTGGTCTTTGT (sugars kdddddddddkekeke, PS) | – | 18% | –
GTTGGCTGGTCTTTGT (sugars kkdddddddddkekek, PS) | – | 62% | –
GTTGTAAATGAGTCGG (sugars e1 k2 d9 k2 e2, PS) | – | 69% | target mRNA inhibition (MM.1R, 0.074 µM): 17%; target mRNA inhibition (MM.1R, 0.222 µM): 38%; target mRNA inhibition (MM.1R, 0.666 µM): 57%; target mRNA inhibition (MM.1R, 2 µM): 79%
GTTGTACAGGACAGGT (sugars k3 d10 k3, PS) | – | 33% | –
GTTGTAGTCCTGCTTG (sugars k3 d10 k3, PS) | 22% | – | –
GTTGTCTGGCTAGCAG (sugars k3 d10 k3, PS) | 59% | – | target mRNA inhibition (SK-MEL-28, 0.185 µM): 20%; target mRNA inhibition (SK-MEL-28, 5 µM): 70%; target mRNA inhibition (SK-MEL-28, 15 µM): 89%
GTTTACACTGGATCTG (sugars k3 d10 k3, PS) | 61% | – | –
GTTTACTAACTGGCTT (sugars k3 d10 k3, PS) | 27% | – | –
TAAAAGGTTCCTGTCA (sugars k4 d8 k4, PS) | 43% | – | –
TAAAGAGCGCATTTCA (sugars k3 d10 k3, PS) | 41% | – | –
TAAAGATGCCAGAGGG (sugars k3 d10 k3, PS) | 39% | – | –
TAAATCACCCTGGTCA (sugars k3 d10 k3, PS) | 22% | – | –
TAACAAGTTATCCAGT (sugars k3 d10 k3, PS) | 12% | – | –
TAACAATACTGTAAGG (sugars k3 d10 k3, PS) | 45% | – | –
TAACACGGTGTTGACA (sugars k3 d10 k3, PS) | 35% | – | –
TAACTTCTCCTGTGCA (sugars k3 d10 k3, PS) | – | 15% | –
TAATATAGTTGTCTGG (sugars k3 d10 k3, PS) | 40% | – | –
TAATTTTAAGGCCCTG (sugars k3 d10 k3, PS) | 39% | – | –
TACAGGACAGGTAAAG (sugars k3 d10 k3, PS) | – | -29% | –
TACATGGCAGTGGAGC (sugars k3 d10 k3, PS) | 71% | – | –
TACATTCACACTGCCG (sugars k3 d10 k3, PS) | 50% and 58% | – | target mRNA inhibition (MM.1R, 0.074 µM): -3%; target mRNA inhibition (MM.1R, 0.222 µM): 2%; target mRNA inhibition (MM.1R, 0.666 µM): 15%; target mRNA inhibition (MM.1R, 2 µM): 9%
TACCCTGGATCACTCA (sugars k3 d10 k3, PS) | 65% | – | –
